Results reported in patent US4374147A, “13-Oxo-monic acid esters useful as antibacterial and antimycoplasmal agents” (Beecham Group Limited, priority 1980, dated 1983).
In brackets after ≈: the same amount, converted by molar mass. Read-outs that look alike come from different tables or passages of the source.

How the values were obtained:
E.coli NCTC 10418 [1] = assay: MIC by serial dilution in nutrient agar (human bacteria, Table 1); format: cell-based; conditions: Escherichia coli, NCTC10418, 5% "chocolated" horse blood
E.coli ESS = assay: as above; format: cell-based; conditions: Escherichia coli, 5% "chocolated" horse blood
P. mirabilis 889 = assay: as above; format: cell-based; conditions: Proteus mirabilis, 5% "chocolated" horse blood
K. aerogenes A = assay: as above; format: cell-based; conditions: Klebsiella aerogenes, 5% "chocolated" horse blood
Ps. aeruginosa 10662 = assay: as above; format: cell-based; conditions: Pseudomonas aeruginosa, 5% "chocolated" horse blood
[2] = test system: Haemophilus influenzae Q1; assay: as above; format: cell-based
[3] = test system: Haemophilus influenzae Wy21; assay: as above; format: cell-based; conditions: 5% "chocolated" horse blood
[4] = test system: Neisseria catarrhalis 1502; assay: as above; format: cell-based; conditions: 5% "chocolated" horse blood
Bacillus subtilis 6633 = assay: as above; format: cell-based; conditions: 5% "chocolated" horse blood
[5] = test system: Corynebacterium xerosis 9755; assay: as above; format: cell-based; conditions: 5% "chocolated" horse blood
Sarcina lutea 8340 = assay: as above; format: cell-based; conditions: Micrococcus luteus, 5% "chocolated" horse blood
Staph.aureus Oxford [6] = assay: as above; format: cell-based; conditions: Staphylococcus aureus
Staph.aureus Russell = assay: as above; format: cell-based; conditions: Staphylococcus aureus
Strep.faecalis I = assay: as above; format: cell-based; conditions: Enterococcus faecalis, 5% "chocolated" horse blood
Strep.pyogenes A 64/848 = assay: as above; format: cell-based; conditions: Streptococcus pyogenes, A64/848, 5% "chocolated" horse blood
Strep.pyogenes B 2788 = assay: as above; format: cell-based; conditions: Streptococcus pyogenes, B2788, 5% "chocolated" horse blood
Strep.pyogenes C 2761 = assay: as above; format: cell-based; conditions: Streptococcus pyogenes, C2761, 5% "chocolated" horse blood
Strep.pneumoniae CN33 = assay: as above; format: cell-based; conditions: Streptococcus pneumoniae, 5% "chocolated" horse blood
B. subtilis ATCC 6633 = assay: MIC by agar dilution (veterinary bacteria, Table 2); format: cell-based; conditions: Bacillus subtilis, ATCC6633, diagnostic sensitivity test agar, 24 hours, 37° C.
Experimental: (§1) The MIC values were determined by agar dilution using diagnostic sensitivity test agar (Oxoid) using a multipoint inoculator delivering 0.001 ml of an inoculum adjusted to give 10^7 -10^8 organisms per ml and read after 24 hours incubation at 37° C.

Bord.bronchiseptica BO8 = assay: as above; format: cell-based; conditions: Bordetella bronchiseptica, diagnostic sensitivity test agar, 24 hours, 37° C.
Experimental: as §1

Bord.bronchiseptica BO9 = assay: as above; format: cell-based; conditions: Bordetella bronchiseptica, diagnostic sensitivity test agar, 24 hours, 37° C.
Experimental: as §1

[7] = test system: Corynebacterium pyogenes CY1; assay: as above; format: cell-based; conditions: Trueperella pyogenes, diagnostic sensitivity test agar, 24 hours, 37° C.
Experimental: as §1

E.coli E1 = assay: as above; format: cell-based; conditions: Escherichia coli, diagnostic sensitivity test agar, 24 hours, 37° C.
Experimental: as §1

E.coli NCTC 10418 [8] = assay: as above; format: cell-based; conditions: Escherichia coli, NCTC10418, diagnostic sensitivity test agar, 24 hours, 37° C.
Experimental: as §1

[9] = test system: Erysipelothrix rhusiopathiae NCTC 8163; assay: as above; format: cell-based; conditions: NCTC8163, diagnostic sensitivity test agar, 24 hours, 37° C.
Experimental: as §1

Past.haemolytica PA5 = assay: as above; format: cell-based; conditions: Mannheimia haemolytica, diagnostic sensitivity test agar, 24 hours, 37° C.
Experimental: as §1

Past.multocida PA1 = assay: as above; format: cell-based; conditions: Pasteurella multocida, diagnostic sensitivity test agar, 24 hours, 37° C.
Experimental: as §1

Past.multocida PA2 = assay: as above; format: cell-based; conditions: Pasteurella multocida, diagnostic sensitivity test agar, 24 hours, 37° C.
Experimental: as §1

S.dublin S7 = assay: as above; format: cell-based; conditions: Salmonella enterica, diagnostic sensitivity test agar, 24 hours, 37° C.
Experimental: as §1

S.typhimurium S18 = assay: as above; format: cell-based; conditions: Salmonella enterica, diagnostic sensitivity test agar, 24 hours, 37° C.
Experimental: as §1

[10] = test system: Staph.aureus 152 (pen sens); assay: as above; format: cell-based; conditions: Staphylococcus aureus, diagnostic sensitivity test agar, 24 hours, 37° C.
Experimental: as §1

[11] = test system: Staph.aureus B4 (pen resis); assay: as above; format: cell-based; conditions: Staphylococcus aureus, diagnostic sensitivity test agar, 24 hours, 37° C.
Experimental: as §1

Staph.aureus Oxford [12] = assay: as above; format: cell-based; conditions: Staphylococcus aureus, diagnostic sensitivity test agar, 24 hours, 37° C.
Experimental: as §1

Strep.agalactiae SPA1 = assay: as above; format: cell-based; conditions: Streptococcus agalactiae, diagnostic sensitivity test agar, 24 hours, 37° C.
Experimental: as §1

Strep.dysgalactiae SPD1 = assay: as above; format: cell-based; conditions: Streptococcus dysgalactiae, diagnostic sensitivity test agar, 24 hours, 37° C.
Experimental: as §1

[13] = test system: Strep.suis (group D) SPS11; assay: as above; format: cell-based; conditions: Streptococcus suis, diagnostic sensitivity test agar, 24 hours, 37° C.
Experimental: as §1

Strep.uberis SPU1 = assay: as above; format: cell-based; conditions: Streptococcus uberis, diagnostic sensitivity test agar, 24 hours, 37° C.
Experimental: as §1

M.dispar NCTC 10125 [14] = assay: Anti-mycoplasmal MIC by serial dilution in Friis broth (Table 3); format: cell-based; conditions: read-out: in vitro MIC
Excerpt: (§2) *Determined by serial dilution in Friis broth (Friis N.F. 1975. Nord. Vet
(§3) Med. 27, 337) in microtiter plates using a modification of the metabolite
(§4) inhibition test (TaylorRobinson D. 1967. Postgrad. Med. J., 43, suppl.

M.pneumoniae 427a = assay: as above; format: cell-based; conditions: Mycoplasmoides pneumoniae, read-out: in vitro MIC
Excerpt: as §2, §3, §4

[15] = test system: M.suipneumoniae J2206/183b; assay: as above; format: cell-based; conditions: Mesomycoplasma hyopneumoniae, read-out: in vitro MIC
Excerpt: as §2, §3, §4

[16] = test system: Pasteurella multocida 1633; assay: MIC by serial dilution in nutrient agar (human bacteria, Table 1); format: cell-based; conditions: Pasteurella multocida 1633; nutrient agar, 5% "chocolated" horse blood; read-out: MIC
Staph. aureus W2827 = assay: MIC by serial dilution in nutrient agar (human bacteria, Table 1, footnote b); format: cell-based; conditions: Staphylococcus aureus, Staph. aureus W2827 (footnote b, in line Staph.aureus 1517), 5% "chocolated" horse blood
M.bovis NCTC 10131 = assay: Anti-mycoplasmal MIC in Friis broth solidified with agarose (Table 3); format: cell-based; conditions: NCTC10131, 144 h, read-out: in vitro MIC
Experimental: (§5) ^+ Determined in Friis broth solidified with 0.9% agarose. The
(§6) inoculum was 10^3 to 10^5 C.F.U. MIC's were recorded after 6 days

M.dispar NCTC 10125 [17] = assay: as above; format: cell-based; conditions: 144 h, 6 days, 37° C., read-out: in vitro MIC
Experimental: as §5, §6

M.hyorhinis ATCC 23234 = assay: as above; format: cell-based; conditions: Mesomycoplasma hyorhinis, ATCC23234, 144 h, 6 days, 37° C., read-out: in vitro MIC
Experimental: as §5, §6

M.hyosynoviae ATCC 25591 = assay: as above; format: cell-based; conditions: 144 h, 6 days, 37° C., read-out: in vitro MIC
Experimental: as §5, §6

[18] = test system: M.pneumoniae (Mac) ATCC 15492; assay: as above; format: cell-based; conditions: Mycoplasmoides pneumoniae, ATCC15492, 144 h, 6 days, 37° C., read-out: in vitro MIC
Experimental: as §5, §6

[19] = test system: M.suipneumoniae J2206/183b; assay: as above; format: cell-based; conditions: Mesomycoplasma hyopneumoniae, 144 h, 6 days, 37° C., read-out: in vitro MIC
Experimental: as §5, §6

M.suipneumoniae Str.11 = assay: as above; format: cell-based; conditions: Mesomycoplasma hyopneumoniae, 144 h, 6 days, 37° C., read-out: in vitro MIC
Experimental: as §5, §6

[20] = test system: Gram-positive and Gram-negative organisms; conditions: disclosed in earlier patents; cited from earlier work
mycoplasma organisms = conditions: disclosed in earlier patents; cited from earlier work

CC(=O)C(C)C1OC1CC1COC(C/C(C)=C/C(=O)OCCCCCCCCC(=O)O)C(O)C1O (centres unmarked) [Example 4, Sodium 13--Oxopseudomonate A]
MIC (E.coli NCTC 10418 [1]): > 100 mg/L
MIC (E.coli ESS): 2.5 mg/L
MIC (P. mirabilis 889): > 100 mg/L
MIC (K. aerogenes A): > 100 mg/L
MIC (Ps. aeruginosa 10662): > 100 mg/L
MIC ([2]; Haemophilus influenzae, Q1): 0.05 mg/L
MIC [3]: 0.1 mg/L
MIC [4]: 0.5 mg/L
MIC (Bacillus subtilis 6633): 0.1 mg/L
MIC [5]: > 100 mg/L
MIC (Sarcina lutea 8340): > 100 mg/L
MIC (Staph.aureus Oxford [6]; Staph.aureus Oxford, nutrient agar, 5% "chocolated" horse blood, read-out: MIC): 0.2 mg/L
MIC (Staph.aureus Russell; Staph.aureus Russell, nutrient agar, 5% "chocolated" horse blood, read-out: MIC): 0.5 mg/L
MIC (Strep.faecalis I): > 100 mg/L
MIC (Strep.pyogenes A 64/848): 1 mg/L
MIC (Strep.pyogenes B 2788): 1 mg/L
MIC (Strep.pyogenes C 2761): 0.5 mg/L
MIC (Strep.pneumoniae CN33): 0.5 mg/L
MIC (B. subtilis ATCC 6633): > 80 mg/L
MIC (Bord.bronchiseptica BO8): 80 mg/L
MIC (Bord.bronchiseptica BO9): 80 mg/L
MIC [7]: > 80 mg/L
MIC (E.coli E1): > 80 mg/L
MIC (E.coli NCTC 10418 [8]): > 80 mg/L
MIC [9]: > 80 mg/L
MIC (Past.haemolytica PA5): 10 mg/L
MIC (Past.multocida PA1): 0.625 mg/L
MIC (Past.multocida PA2): 0.625 mg/L
MIC (S.dublin S7): > 80 mg/L
MIC (S.typhimurium S18): > 80 mg/L
MIC [10]: 1.25 mg/L
MIC [11]: 1.25 mg/L
MIC (Staph.aureus Oxford [12]): 1.25 mg/L
MIC (Strep.agalactiae SPA1): 10 mg/L
MIC (Strep.dysgalactiae SPD1): 1.25 mg/L
MIC [13]: 20 mg/L
MIC (Strep.uberis SPU1): 0.312 mg/L
MIC (M.dispar NCTC 10125 [14]): 3.9 mg/L
MIC (M.pneumoniae 427a): 250 mg/L
MIC [15]: 31.2 mg/L

CCOC(=O)C=C(C)CC1OCC(CC2OC2C(C)C(C)=O)C(O)C1O (centres unmarked) [Example 5, Ethyl 4-(5-(2,3-epoxy-4-methylhexan-5-onyl)-3,4-dihydroxytetrahydropyran-2-yl)-3-methylbut-2-enoate]
MIC (E.coli NCTC 10418 [1]): > 100 mg/L
MIC (E.coli ESS): 10 mg/L (≈ 27 µM)
MIC (P. mirabilis 889): 100 mg/L (≈ 270 µM)
MIC (K. aerogenes A): > 100 mg/L
MIC (Ps. aeruginosa 10662): > 100 mg/L
MIC [16]: 10 mg/L (≈ 27 µM)
MIC ([2]; Haemophilus influenzae Q1, nutrient agar, 5% "chocolated" horse blood, read-out: MIC): 1 mg/L (≈ 2.7 µM)
MIC [3]: 1 mg/L (≈ 2.7 µM)
MIC [4]: 2.5 mg/L (≈ 6.75 µM)
MIC (Bacillus subtilis 6633): 10 mg/L (≈ 27 µM)
MIC (Staph.aureus Oxford [6]): 5 mg/L (≈ 13.5 µM)
MIC (Staph.aureus Russell): 5 mg/L (≈ 13.5 µM)
MIC (Staph. aureus W2827): 5 mg/L (≈ 13.5 µM)
MIC (Strep.faecalis I): > 100 mg/L
MIC (Strep.pyogenes A 64/848): 50 mg/L (≈ 135 µM)
MIC (Strep.pyogenes B 2788): 50 mg/L (≈ 135 µM)
MIC (Strep.pyogenes C 2761): 100 mg/L (≈ 270 µM)
MIC (Strep.pneumoniae CN33): 10 mg/L (≈ 27 µM)
MIC (Bord.bronchiseptica BO8): > 80 mg/L
MIC (Bord.bronchiseptica BO9): 80 mg/L (≈ 216 µM)
MIC [7]: > 80 mg/L
MIC (E.coli E1): > 80 mg/L
MIC (E.coli NCTC 10418 [8]): > 80 mg/L
MIC [9]: > 80 mg/L
MIC (Past.haemolytica PA5): 10 mg/L (≈ 27 µM)
MIC (Past.multocida PA1): 2.5 mg/L (≈ 6.75 µM)
MIC (Past.multocida PA2): 0.625 mg/L (≈ 1.69 µM)
MIC (S.dublin S7): > 80 mg/L
MIC (S.typhimurium S18): > 80 mg/L
MIC [10]: 0.625 mg/L (≈ 1.69 µM)
MIC [11]: 0.625 mg/L (≈ 1.69 µM)
MIC (Staph.aureus Oxford [12]): 0.625 mg/L (≈ 1.69 µM)
MIC (Strep.agalactiae SPA1): 20 mg/L (≈ 54 µM)
MIC (Strep.dysgalactiae SPD1): 20 mg/L (≈ 54 µM)
MIC [13]: > 80 mg/L
MIC (Strep.uberis SPU1): 2.5 mg/L (≈ 6.75 µM)
MIC (M.bovis NCTC 10131): 0.1 mg/L (≈ 0.27 µM)
MIC (M.dispar NCTC 10125 [17]): 1 mg/L (≈ 2.7 µM)
MIC (M.hyorhinis ATCC 23234): 5 mg/L (≈ 13.5 µM)
MIC (M.hyosynoviae ATCC 25591): 2.5 mg/L (≈ 6.75 µM)
MIC [18]: > 10 mg/L
MIC [19]: 5 mg/L (≈ 13.5 µM)
MIC (M.suipneumoniae Str.11): 2.5 mg/L (≈ 6.75 µM)

CC(=CC(=O)OCCCCCCCCC(=O)O)CC1OCC(CC2OC2C(C)C(C)O)C(O)C1O (centres unmarked) [Pseudomonic acid]
antibacterial activity [20]: having antibacterial activity

C/C(=C\C(=O)O)CC1OCC(CC2OC2C(C)C(C)O)C(O)C1O (centres unmarked) [monic acid A]
antibacterial activity [20]: does not appear to have antibacterial or anti-mycoplasmal activity
anti-mycoplasmal activity (mycoplasma organisms): does not appear to have antibacterial or anti-mycoplasmal activity
